Test results from US20150018398A1, “METHODS OF USING ESTROGEN RECEPTOR-BETA LIGANDS AS RADIATION MITIGATORS” (The Regents of the University of California, priority 2013, published 2015).
Entries after “also recorded” stand apart in the source; their conditions may differ.

Assays:
[1] = system: human vascular endothelial cells (HUVEC); experiment: Cell survival after irradiation, drug given 24 h after RT (HUVEC); type: cell-based; settings: for cell survival post-radiation (radiation mitigation): HUVEC, treatment at 24 hours after irradiation, P<0.001
From the text: (§1) FIGS. 6A-6B. […] 15; 59(6):1347-55).
(§2) ER-selective ligands increase survival of epithelial and endothelial cells post-radiation.

[2] = system: H23 lung epithelial cells; experiment: Cell survival after irradiation (H23 lung epithelial cells); type: cell-based, human; settings: P<0.001; for lung cell survival post-radiation: H23, pre-treatment before irradiation
From the text: as §1, §2

[3] = system: normal human bronchial epithelial (NHBE) cells; experiment: Cell viability after irradiation (NHBE cells); type: cell-based; settings: 5 nM for 2 h before irradiation (2 Gy), up to 48 h
From the text: An additional experiment was done using normal human bronchial epithelial (NHBE) cells (see FIG. 7). […] These collective findings support the underlying hypothesis on the role of ERβ signaling in modulating radiation sensitivity.

[4] = system: H23 lung epithelial cells with ERβ silencing (ERbKD); experiment: Cell survival after irradiation with ERβ siRNA knockdown; type: cell-based, human; settings: lung epithelial cells treated with siRNA to suppress ERβ expression
Method: FIG. 8. H23 lung epithelial cells were transfected with control non-specific siRNAs (CON) or smart-pool ESR2 [ERβ] siRNA for ERβ silencing (ERbKD) as before (31,32); control cells were then treated with or without estradiol (E2) and compared with ERbKD cells treated with estradiol for 2 hrs before irradiation at 0-15 Gy as indicated in the figure (n=3 experiments); surviving cell fractions (%) are plotted on a log scale at increasing radiation doses.
To further assess the role of ERβ as a radioprotector and potential radiation mitigator, lung epithelial cells were treated with small inhibitory RNAs (siRNA) to suppress ERβ expression using established methods (Márquez-Garbán D C, Chen H W, Fishbein M C, Goodglick L, Pietras R J. Steroids. 2007 February; 72(2):135-43. Epub 2007 Feb. 5; Márquez D C, Chen H W, Curran E M, Welshons W V, Pietras R J. Mol Cell Endocrinol. 2006 Feb. 26; 246(1-2):91-100. Epub 2006 Jan. 4). […] Thus, ERβ appears to play a critical role in mediating effects of estrogen post-irradiation.

[5] = system: radiation-damaged reporter DNA in H23 lung cells; experiment: Reporter DNA repair assay; type: cell-based, human; settings: 24 h after transfection, 2 nM E2, 0.5 nM DPN or ERB
From the text: FIG. 9. […] 15; 59(6):1347-55); data are from 3 experiments (mean±SEM).

[6] = system: lung cells; experiment: TUNEL assay of apoptosis after RT; type: cell-based; settings: E2 10 nM, DPN 1 μM, PPT 1 μM for 2 h, then 15 Gy, TUNEL after 48 h
From the text: Cell death is a measurable outcome due to significant radiation injury.

[7] = system: VEGF secretion by H23 lung epithelial cells; experiment: VEGF secretion by ELISA after irradiation; type: cell-based, human; settings: for VEGF secretion after irradiation: H23, treated 2 hrs before irradiation (10 Gy), ELISA after 24 hrs; for increase in vascular endothelial growth factor (VEGF) secretion: lung epithelial cells pre-treated (E2 2 nM, DPN 5 nM, 2 hrs) before irradiation (10 Gy), P<0.001
[8] = system: C3H mice; experiment: Survival after lethal TBI, C3H mice; type: in vivo; settings: for lethality and survival after TBI: male C3H mice, 7.725 Gy TBI, DPN 10 mg/kg SC or ERB-041 50 mg/kg oral gavage daily for 5 days starting 24 h after TBI
From the text: C3H mice were bred and maintained in a strict defined-flora, pathogen-free environment in the AALAC-accredited animal facilities. The UCLA ARC approved all experiments which were done in accord with all local and national guidelines for care and use of animals. Male mice, 9-10 wks old, received 7.725 Gy TBI from a Gamma Cell 40 irradiator (^137Cs source; Atomic Energy of Canada) at a dose rate of 67 cGy/min. […] Mice were monitored for up to 60 days using standard criteria for humane euthanasia as an endpoint and weights were recorded twice/week.

[9] = system: C57/BL6 mice; experiment: Survival after lethal TBI, C57/BL6 mice; type: in vivo; settings: male C57/BL6 mice; 8.5 Gy TBI; DPN 10 mg/kg SC or ERB-041 50 mg/kg oral gavage daily for 5 days starting 24 hours after TBI; 30 days
From the text: FIG. 15. […] Mice (n=8/group) received 8.5 Gy TBI. […] Controls received appropriate vehicle treatment (e.g. SC [CON SC] or OG [CON OG].
To validate our results above using a different animal model, we used C57/BL6 mice that were also bred and maintained in our AALAC-accredited animal facilities. As above, the UCLA ARC approved all studies. Male mice, 9 weeks-old, in a well-ventilated Lucite chamber without anesthesia received 8.5 Gy TBI from a Gamma Cell 40 irradiator (^137Cs source; Atomic Energy of Canada) at a dose rate of 67 cGy/min. […] Mice were monitored for 30 days using standard criteria for humane euthanasia as an endpoint and weights were recorded twice/week. […] These preliminary findings (FIGS. 14 & 15) provide good evidence to pursue further investigation of ERβ ligands as radiation mitigators.

[10] = system: ERβ-EGFR interaction in H23 lung tumor cells; experiment: ERβ-EGFR co-immunoprecipitation; type: cell-based, human; settings: DPN treatment
Method: EGF stimulates ERβ-EGFR interaction in epithelial cells. To assess the idea that ERβ interacts with EGFR to promote cross-talk in signaling, the association of these molecules in co-immunoprecipitation studies was tested in vitro (Márquez D C, Lee J, Lin T, Pietras R J. Endocrine. 2001 November; 16(2):73-81) (FIG. 4).

[11] = system: phospho-serine-1981-ATM (PS-ATM) in A549 cells; experiment: RT-induced ATM activation (PS-ATM staining); type: cell-based, human; settings: treated 2 h, 5 Gy, stained 2 h after radiation, E2 10 nM, DPN/PPT 1 μM
Method: Phosphoryaltion of ATM is a critical first step in cell responses to RT (FIG. 3). Lung cells treated with control or estrogen for 2 hr were then irradiated and examined after 2 h for ATM activation (FIG. 10).

[12] = system: MDM2 in A549 lung epithelial cells; experiment: MDM2 expression by Western blot; type: cell-based, human; settings: E2 10 nM, DPN or PPT 1 μM for 24 h
From the text: Estrogens modulate MDM2 expression in lung cells. MDM2 is well known to bind and inhibit p53 FIG. 3). ERα binds and regulates the MDM2 promoter to stimulate MDM2 expression (see FIG. 12). Indeed, MDM2 SNP309 is reported to occur in an ER binding region of the MDM2 promoter, and affected individuals with SNP309 have increased MDM2 levels mediated by estrogen signaling (33,34).

[13] = in vivo; cited from earlier work
[14] = system: sublethally-irradiated mice; settings: treatment 24 h before RT; cited from earlier work
[15] = biological target: T1, ERα (Homo sapiens, UniProt P03372); settings: Harrington et al. 2003; cited from earlier work
T1 sequence (P03372 1-595): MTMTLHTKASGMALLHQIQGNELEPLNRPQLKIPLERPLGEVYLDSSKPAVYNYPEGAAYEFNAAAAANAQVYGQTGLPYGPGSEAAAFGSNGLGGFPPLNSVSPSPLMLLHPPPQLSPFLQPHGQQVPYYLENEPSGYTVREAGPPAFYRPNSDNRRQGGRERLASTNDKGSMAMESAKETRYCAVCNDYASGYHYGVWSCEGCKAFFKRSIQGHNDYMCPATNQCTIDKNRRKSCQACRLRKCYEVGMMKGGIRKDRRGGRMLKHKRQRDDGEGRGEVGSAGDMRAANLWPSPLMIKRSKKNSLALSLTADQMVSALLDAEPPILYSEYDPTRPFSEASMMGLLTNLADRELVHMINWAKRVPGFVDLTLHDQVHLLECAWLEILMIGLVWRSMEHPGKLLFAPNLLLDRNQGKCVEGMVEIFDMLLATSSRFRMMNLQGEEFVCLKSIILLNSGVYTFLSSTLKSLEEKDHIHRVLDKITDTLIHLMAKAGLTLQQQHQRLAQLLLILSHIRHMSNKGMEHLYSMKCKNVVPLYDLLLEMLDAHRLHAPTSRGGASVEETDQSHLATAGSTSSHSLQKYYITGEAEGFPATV

Structure (SMILES) | cell survival post-radiation (radiation mitigation) [1] | lung cell survival post-radiation [2] | cell viability / protection from radiation injury ([3]; P<0.001) | radioprotective / radiation mitigator effect in cells with ERβ knockdown [4] | repair of radiation-damaged reporter DNA [5] | radiation-induced apoptosis [6] | VEGF secretion after irradiation [7] | increase in vascular endothelial growth factor (VEGF) secretion [7] | lethality and survival after TBI [8] | lethality and survival after TBI [9] | ATM phosphorylation at serine 1981 (nuclear clustering of PS-ATM) after irradiation [11] | MDM2 levels [12] | other results
N#CC(Cc1ccc(O)cc1)c1ccc(O)cc1 (stereo not shown) [DPN, 2,3-bis[4-hydroxyphenyl]-propionitrile] | mitigates these effects in HUVEC cells | dose-dependent increase in lung cell survival post-radiation | protect normal epithelial cells from radiation injury; also recorded: significantly different from control | abolished | stimulation of enhanced DNA repair after irradiation; also recorded: stimulates repair of radiation-damaged reporter DNA | showed efficacy in suppressing radiation-induced apoptosis; also recorded: reduce radiation-induced apoptosis | stimulate high levels of VEGF secretion | 2 fold | protected mice from lethality and improved survival | protects mice from lethality and improves survival |  |  | Cell survival ([1]; normal human lung epithelial and vascular endothelial cells in vitro, treatment at 24-hr after irradiation, vs controls P<0.001): significantly improved in a dose-dependent fashion; effect as a radiation mitigator ([2]; H23 cells, treatment at 24 hrs after irradiation, two experiments): comparable effect as a radiation mitigator; VEGF secretion, treatment after irradiation ([7]; treatment at 24 hours after irradiation (10 Gy), vs controls P<0.001): comparable increase in VEGF secretion; also recorded: significant increase in VEGF secretion; post-irradiation survival ([8]; mouse models in vivo, subcutaneous, treatment started 24 hours after TBI): 100%; post-irradiation time window ([8]; radiation mitigator): > 24 h; interaction of ER-beta with EGFR [10]: promotes interaction of ERβ with EGFR; also recorded: promotes interaction of ER-beta with EGFR
C[C@]12CC[C@@H]3c4ccc(O)cc4CC[C@H]3[C@@H]1CC[C@@H]2O [E2, estradiol-17β] |  |  |  | failed to show a radioprotective effect | stimulation of enhanced DNA repair after irradiation | showed efficacy in suppressing radiation-induced apoptosis | stimulate high levels of VEGF secretion | 2 fold |  |  | increased | stimulate MDM2 levels | repair of radiation-damaged reporter DNA ([5]; listed as Estrogen): stimulate repair of radiation-damaged reporter DNA
C=Cc1cc(O)cc2nc(-c3ccc(O)c(F)c3)oc12 [ERB-041, (4Z)-4-(7-ethenyl-5-hydroxy-3H-1,3-benzoxazol-2-ylidene)-2-fluorocyclohexa-2,5-dien-1-one] | mitigates these effects in HUVEC cells | dose-dependent increase in lung cell survival post-radiation | protect normal epithelial cells from radiation injury |  | stimulation of enhanced DNA repair after irradiation |  |  |  | somewhat less efficacious as a radiation mitigator | somewhat less efficacious as a radiation mitigator |  |  | cell viability / protection from radiation injury ([3]; P<0.001, listed as ERB): significantly different from control; oral bioavailability [13]: notable oral bioavailability
O=c1c(-c2ccc(O)cc2)coc2cc(O)cc(O)c12 [Genistein] |  |  |  |  |  |  |  |  |  |  |  |  | survival of irradiated mice [14]: increased survival without other significant toxicity
CCCc1c(-c2ccc(O)cc2)nn(-c2ccc(O)cc2)c1-c1ccc(O)cc1 [PPT, Propylpryazoletriol] |  |  |  |  |  | showed efficacy in suppressing radiation-induced apoptosis |  |  |  |  | not | stimulate MDM2 levels | ERα agonism [15]: potent ERα agonist
